Data from BindingDB's records for patent US12466821 (Novartis, 2025).

The compounds below were run against T1, DNA polymerase catalytic subunit (Human herpesvirus 1 (strain 17), UniProt P04293).
T1 sequence (P04293 whole entry): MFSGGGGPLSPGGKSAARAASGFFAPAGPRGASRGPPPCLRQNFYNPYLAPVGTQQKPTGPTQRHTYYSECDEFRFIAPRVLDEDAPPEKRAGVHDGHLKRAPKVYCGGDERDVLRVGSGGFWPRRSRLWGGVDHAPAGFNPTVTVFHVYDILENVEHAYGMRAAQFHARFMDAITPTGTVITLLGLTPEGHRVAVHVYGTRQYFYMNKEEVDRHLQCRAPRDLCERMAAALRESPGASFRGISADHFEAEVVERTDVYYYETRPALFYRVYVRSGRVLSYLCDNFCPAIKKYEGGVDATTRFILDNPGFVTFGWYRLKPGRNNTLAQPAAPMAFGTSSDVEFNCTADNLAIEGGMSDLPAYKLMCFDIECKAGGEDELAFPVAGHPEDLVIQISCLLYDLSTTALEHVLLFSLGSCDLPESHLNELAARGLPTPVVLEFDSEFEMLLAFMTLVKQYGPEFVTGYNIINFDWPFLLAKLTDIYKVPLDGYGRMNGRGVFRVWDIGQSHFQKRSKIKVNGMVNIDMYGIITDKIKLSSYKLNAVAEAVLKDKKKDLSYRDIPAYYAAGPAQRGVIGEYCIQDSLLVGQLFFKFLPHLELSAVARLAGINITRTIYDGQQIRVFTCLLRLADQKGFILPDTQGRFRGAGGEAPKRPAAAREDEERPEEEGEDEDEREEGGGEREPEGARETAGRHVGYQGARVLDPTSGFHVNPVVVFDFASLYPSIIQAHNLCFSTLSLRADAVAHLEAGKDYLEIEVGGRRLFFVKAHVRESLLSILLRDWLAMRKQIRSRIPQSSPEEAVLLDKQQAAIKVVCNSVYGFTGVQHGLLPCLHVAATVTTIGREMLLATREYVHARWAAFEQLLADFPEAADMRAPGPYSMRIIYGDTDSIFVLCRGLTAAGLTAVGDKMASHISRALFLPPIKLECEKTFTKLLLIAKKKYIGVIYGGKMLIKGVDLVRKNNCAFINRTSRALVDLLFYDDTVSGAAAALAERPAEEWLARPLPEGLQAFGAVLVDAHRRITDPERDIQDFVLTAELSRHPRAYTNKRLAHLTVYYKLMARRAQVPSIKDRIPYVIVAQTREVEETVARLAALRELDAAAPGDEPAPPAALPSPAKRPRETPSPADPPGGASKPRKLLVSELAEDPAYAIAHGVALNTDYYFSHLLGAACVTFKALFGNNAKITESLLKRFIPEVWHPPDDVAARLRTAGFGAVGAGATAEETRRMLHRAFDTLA

Compound	IC50 [nM]
O=C(NCc1ccc(Cl)cc1)c1cc(C2CC2)c2n(c1=O)CCN(CCN1CCCS1(=O)=O)C2=O [US12466821, Example 131]	311
CS(=O)(=O)CCCN1CCn2c(c(C3CC3)cc(C(=O)NCc3ccc(Cl)cc3)c2=O)C1=O [US12466821, Example 130]	2420
CS(=O)(=O)CCCN1CCn2c(c(C(F)(F)F)cc(C(=O)NCc3ccc(Cl)cc3)c2=O)C1=O [US12466821, Example 146]	14800
CCc1cc(C(=O)NCc2ccc(Cl)cc2)c(=O)n2c1C(=O)N(CCN1CCCS1(=O)=O)CC2 [US12466821, Example 135]	342
CN(CCN1CCn2c(c(F)cc(C(=O)NCc3ccc(Cl)cc3)c2=O)C1=O)S(C)(=O)=O [US12466821, Example 160]	2020
CN(C)C(=O)C1(CN2CCn3c(ccc(C(=O)NCc4ccc(Cl)cc4)c3=O)C2=O)CC1 [US12466821, Example 209]	1640
O=C(NCc1ccc(Cl)cc1)c1cc(CC2CC2)c2n(c1=O)CCN(CCN1CCCS1(=O)=O)C2=O [US12466821, Example 133]	324
CS(=O)(=O)C1(CCN2CCn3c(ccc(C(=O)NCc4ccc(Cl)cc4)c3=O)C2=O)CC1 [US12466821, Example 170]	9350
CS(=O)(=O)C1(CN2CCn3c(c(F)cc(C(=O)NCc4ccc(Cl)cc4)c3=O)C2=O)CC1 [US12466821, Example 167]	71.8
Cc1cc(C(=O)NCc2ccc(Cl)cc2)c(=O)n2c1C(=O)N(CCC1(S(C)(=O)=O)CC1)CC2 [US12466821, Example 151]	9250
CS(=O)(=O)CCN1CCn2c(ccc(C(=O)NCc3ccc(Cl)cc3)c2=O)C1=O [US12466821, Example 51]	789
N#Cc1ccc(CNC(=O)c2ccc3n(c2=O)CCN(CC2(S(=O)(=O)CCCO)CC2)C3=O)cc1F [US12466821, Example 23]	124
N#CCS(=O)(=O)C1(CN2CCn3c(ccc(C(=O)NCc4ccc(Cl)cc4)c3=O)C2=O)CC1 [US12466821, Example 108-1]	116
Cc1cc(C(=O)NCc2ccc(Cl)cc2)c(=O)n2c1C(=O)N(CC1(CS(C)(=O)=O)CC1)CC2 [US12466821, Example 154]	283
NC1(CN2CCn3c(ccc(C(=O)NCc4ccc(Cl)cc4)c3=O)C2=O)CC1 [US12466821, Example 197]	3600
CN(C)S(=O)(=O)C1(CN2CCn3c(ccc(C(=O)NCc4ccc(C#N)cc4)c3=O)C2=O)CC1 [US12466821, Example 90-2]	19.8
CS(=O)(=O)C1(CCN2CCn3c(c(F)cc(C(=O)NCc4ccc(Cl)cc4)c3=O)C2=O)CC1 [US12466821, Example 165]	137000
CCOC(=O)C1(CN2CCn3c(ccc(C(=O)NCc4ccc(Cl)cc4)c3=O)C2=O)CC1 [US12466821, Example 207]	2900
Cc1cc(C(=O)NCc2ccc(Cl)cc2)c(=O)n2c1C(=O)N(CC1(N3CCCS3(=O)=O)CC1)CC2 [US12466821, Example 150]	65.3
CS(=O)(=O)CC1(CN2CCn3c(c(F)cc(C(=O)NCc4ccc(Cl)cc4)c3=O)C2=O)CC1 [US12466821, Example 168]	292
O=C(NCc1ccc(Cl)cc1)c1ccc2n(c1=O)CCN(CC1(C(=O)N3CCC3)CC1)C2=O [US12466821, Example 208]	4530
O=C(NCc1ccc(Cl)cc1)c1cc(C(F)F)c2n(c1=O)CCN(CCN1CCCS1(=O)=O)C2=O [US12466821, Example 144]	1110
O=C(NCc1ccc(Cl)cc1)c1ccc2n(c1=O)CCN(CC1(C(=O)N3CCOCC3)CC1)C2=O [US12466821, Example 211]	4770
